In EPA's ToxRefDB 2:

Key:
[1] = system: dog; settings: Chronic toxicity; beagle; Oral; Feed; dose end: 52 week; group: systemic; systemic / organ weight / liver / relative to body weight + systemic / hematology / platelet / platelet + systemic / organ weight / kidney…
[2] = system: mouse; settings: Carcinogenicity, Charles River, Oral, Feed, dose end: 104 week, group: systemic
[3] = system: rat; settings: Prenatal developmental toxicity study, sprague dawley, Oral, Gavage/Intubation, dose end: 15 GD
[4] = system: rat; settings: Combined chronic toxicity/carcinogenicity, fischer, Oral, Feed, dose end: 2 year, group: systemic
[5] = system: mouse; settings: Subchronic oral toxicity in rodents, B6C3F1, Feed, dose end: 3 month, group: systemic
[6] = system: rat; settings: Chronic toxicity, fischer, Oral, Feed, dose end: 1 year, group: systemic
[7] = system: dog; settings: Subchronic oral toxicity in nonrodent, beagle, Capsule, dose end: 90 day, group: systemic
[8] = system: rat; settings: Multigenerational reproductive toxicity study, fischer, Oral, Feed, dose end: 1 generation
[9] = system: mouse; settings: Chronic toxicity; b6c3f1; Oral; Feed; dose end: 2 year; group: systemic; systemic / clinical chemistry / alkaline phosphatase (alp/alk) / alkaline phosphatase (alp/alk) + systemic / organ weight / liver / absolute…
[10] = system: dog; settings: Chronic toxicity, beagle, Oral, Capsule, dose end: 52 week, group: systemic
[11] = system: dog; settings: Chronic toxicity, beagle, Oral, Feed, dose end: 52 week, group: systemic
[12] = system: rat; settings: Subchronic oral toxicity in rodents, sprague dawley, Feed, dose end: 13 week, group: systemic, systemic / pathology gross / kidney / discolored + systemic / in life observation / body weight / body weight + systemic / in life …
[13] = system: rat; settings: Combined chronic toxicity/carcinogenicity, sprague dawley, Oral, Feed, dose end: 104 week, group: systemic
[14] = system: mouse; settings: Subchronic oral toxicity in rodents, cd1, Feed, dose end: 13 week, group: systemic, systemic / pathology microscopic / liver / lipid deposition
[15] = system: dog; settings: Subchronic oral toxicity in nonrodent, beagle, Feed, dose end: 13 week, group: systemic, systemic / clinical chemistry / albumin-globulin ratio / albumin-globulin ratio + systemic / clinical chemistry / aspartate aminotransferase…
[16] = system: rat; settings: Prenatal developmental toxicity study, wistar, Oral, Gavage/Intubation, dose end: 16 GD
[17] = system: rat; settings: Prenatal developmental toxicity study; wistar; Oral; Feed; dose end: 15 GD; group: maternal; systemic / in life observation / body weight / body weight gain + systemic / in life observation / food consumption / food consumption
[18] = systemic / in life observation / body weight / body weight gain + systemic / pathology microscopic / lung / carcinoma + systemic / in life …
[19] = group: developmental, developmental / developmental malformation / kidney / small renal papilla
[20] = group: developmental, developmental / developmental malformation / kidney / small renal papilla + developmental / developmental malformation / spinal cord / …
[21] = group: maternal, systemic / in life observation / food consumption / food consumption + systemic / pathology gross / spleen / discolored
[22] = group: maternal, systemic / in life observation / food consumption / food consumption + systemic / pathology gross / spleen / discolored + reproductive / …
[23] = systemic / in life observation / clinical signs / urine, discoloration + systemic / clinical chemistry / glucose / glucose
[24] = systemic / pathology microscopic / mammary gland / fibroadenoma + systemic / clinical chemistry / urea nitrogen / urea nitrogen + systemic…
[25] = systemic / in life observation / body weight / body weight + systemic / in life observation / body weight / body weight gain
[26] = systemic / organ weight / adrenal gland / absolute + systemic / organ weight / adrenal gland / relative to body weight + systemic / organ …
[27] = group: offspring, systemic / in life observation / clinical signs / urogenital staining + systemic / urinalysis / appearance and color / appearance and color
[28] = group: parental, systemic / organ weight / liver / absolute + systemic / organ weight / liver / relative to body weight + systemic / in life observation / …
[29] = systemic / hematology / [other] / [other] + systemic / hematology / jolly bodies / jolly bodies + systemic / hematology / macrocytosis / …
[30] = systemic / hematology / polychromasia / polychromasia + systemic / hematology / lymphocyte / lymphocyte + systemic / in life observation / …
[31] = systemic / hematology / [other] / [other] + systemic / hematology / erythroblast / erythroblast + systemic / hematology / monocytes / …
[32] = systemic / hematology / erythroblast / erythroblast
[33] = systemic / in life observation / body weight / body weight + systemic / in life observation / body weight / body weight gain + systemic / in…
[34] = group: developmental, developmental / developmental malformation / kidney / dilated renal pelvis + developmental / developmental malformation / ureter / distended
[35] = group: maternal, systemic / in life observation / clinical signs / salivation

CN(C)C(=O)Nc1cccc(C(F)(F)F)c1 [Fluometuron]
NEL [1]: 237 mg/kg/day
NOAEL [1]: 237 mg/kg/day
LOAEL ([2]; systemic / in life observation / body weight / body weight gain): 260 mg/kg/day
NEL [2, 18]: 1.2 mg/kg/day
NOAEL [2, 18]: 61.5 mg/kg/day
LEL ([2]; systemic / pathology microscopic / lung / carcinoma + systemic / in life observation / clinical signs / [other]): 61.5 mg/kg/day
LEL [3, 19]: 100 mg/kg/day
LOAEL [3, 19]: 100 mg/kg/day
NEL [3, 20]: 10 mg/kg/day
NOAEL [3, 20]: 10 mg/kg/day
LEL [3, 21]: 100 mg/kg/day
LOAEL [3, 21]: 100 mg/kg/day
NEL [3, 22]: 10 mg/kg/day
NOAEL [3, 22]: 10 mg/kg/day

C=C(C)CN(CC)c1c([N+](=O)[O-])cc(C(F)(F)F)cc1[N+](=O)[O-] [Ethalfluralin]
LEL [4, 23]: 5 mg/kg/day
NEL [4, 23]: < 5 mg/kg/day
LOAEL [4, 24]: > 37.5 mg/kg/day
NOAEL [4, 24]: ≥ 37.5 mg/kg/day
LEL ([5]; systemic / clinical chemistry / bilirubin / total bilirubin + systemic / organ weight / kidney / absolute): 136 mg/kg/day
NOAEL ([5]; systemic / in life observation / body weight / body weight + systemic / clinical chemistry / alanine aminotransferase (alt/sgpt) / alanine …): 285 mg/kg/day
LOAEL [5, 25]: 538 mg/kg/day
NEL ([5]; systemic / in life observation / body weight / body weight gain + systemic / clinical chemistry / bilirubin / total bilirubin + systemic / …): 68 mg/kg/day
LOAEL ([6]; systemic / in life observation / body weight / body weight gain + systemic / organ weight / liver / relative to body weight): 37.5 mg/kg/day
NOAEL ([6]; systemic / in life observation / body weight / body weight gain + systemic / organ weight / liver / relative to body weight + systemic / …): 12.5 mg/kg/day
LEL [6, 26]: 5 mg/kg/day
NEL [6, 26]: < 5 mg/kg/day
LOAEL ([7]; systemic / in life observation / clinical signs / anorexia + systemic / in life observation / clinical signs / vomitting): 125 mg/kg/day
LEL ([7]; systemic / in life observation / clinical signs / anorexia + systemic / in life observation / clinical signs / vomitting + systemic / in …): 125 mg/kg/day
LEL [8, 27]: 20 mg/kg/day
LOAEL [8, 27]: > 61 mg/kg/day
NEL [8, 27]: 8 mg/kg/day
NOAEL [8, 27]: ≥ 61 mg/kg/day
LOAEL ([8]; group: parental, systemic / organ weight / liver / absolute + systemic / organ weight / liver / relative to body weight): 61 mg/kg/day
NEL [8, 28]: 8 mg/kg/day
NOAEL [8, 28]: 20 mg/kg/day
LEL ([8]; group: parental, systemic / organ weight / liver / relative to body weight + systemic / in life observation / clinical signs / urogenital staining + systemic…): 20 mg/kg/day
LEL [9]: 47 mg/kg/day
LOAEL [9]: 47 mg/kg/day
NEL [9]: 11.6 mg/kg/day
NOAEL [9]: 11.6 mg/kg/day
LOAEL [10, 29]: 20 mg/kg/day
NOAEL [10, 29]: 4 mg/kg/day
LEL [10, 30]: 4 mg/kg/day
NEL [10, 30]: < 4 mg/kg/day

COC(=O)c1ccc(I)cc1S(=O)(=O)[N-]C(=O)Nc1nc(C)nc(OC)n1.[Na+] [Iodosulfuron-methyl-sodium]
LOAEL [11, 31]: 43.7 mg/kg/day
NOAEL [11, 31]: 7.25 mg/kg/day
LEL [11, 32]: 41.8 mg/kg/day
NEL [11, 32]: 7.37 mg/kg/day
LEL [12]: 347 mg/kg/day
LOAEL [12]: 347 mg/kg/day
LOAEL [13, 25]: 331 mg/kg/day
LEL [13, 33]: 29.7 mg/kg/day
NEL [13, 33]: 2.96 mg/kg/day
NOAEL [13, 33]: 29.7 mg/kg/day
LEL [14]: 139 mg/kg/day
LOAEL [14]: 139 mg/kg/day
NEL [14]: < 139 mg/kg/day
NOAEL [14]: < 139 mg/kg/day
LEL [15]: 49 mg/kg/day
LOAEL [15]: 49 mg/kg/day
NEL [15]: 8.1 mg/kg/day
NOAEL [15]: 8.1 mg/kg/day
LEL [16, 34]: 100 mg/kg/day
LOAEL [16, 34]: 100 mg/kg/day
NEL [16, 34]: < 100 mg/kg/day
NOAEL [16, 34]: < 100 mg/kg/day
LEL [16, 35]: 1000 mg/kg/day
LOAEL [16, 35]: 1000 mg/kg/day
NEL [16, 35]: 315 mg/kg/day
NOAEL [16, 35]: 315 mg/kg/day

CC(C)(C)c1ccc(O)cc1 [4-tert-Butylphenol]
LEL [17]: 3590 mg/kg/day
LOAEL [17]: 3590 mg/kg/day
